We go through twelve compounds from ChEMBL document CHEMBL3045633, “Synthesis and antimicrobial activity of newer indole semicarbazones” (2012).

Converted amounts (≈) assume the structure as drawn.

Common to all, as to format: functional
The test system of assay [1] is Staphylococcus epidermidis. Description: Antibacterial activity against Staphylococcus epidermidis after 24 hr by broth dilution method. Background: Dilution methods test growth across graded concentrations, often in twofold steps.
The subject of the next assay is Staphylococcus aureus. Description: Antibacterial activity against Staphylococcus aureus after 24 hr by broth dilution method.
The subject of assay [2] is Candida albicans. Description: Antifungal activity against Candida albicans at 150 ug after 48 hr by agar cup bioassay. The conditions noted are these: read-out: DIZ.
For another assay, the system named is Pseudomonas aeruginosa. Description: Antibacterial activity against Pseudomonas aeruginosa after 24 hr by broth dilution method.
Assay [3] deals with Candida albicans. Description: Antifungal activity against Candida albicans at 100 ug after 48 hr by agar cup bioassay. Conditions: read-out: DIZ.
The subject of the next assay is Klebsiella pneumoniae. Description: Antibacterial activity against Klebsiella pneumoniae after 24 hr by broth dilution method.
For assay [4], the system named is Diutina rugosa. Description: Antifungal activity against Candida rugosa at 150 ug after 48 hr by agar cup bioassay. The conditions noted are these: read-out: DIZ.
In another assay the test system is Bacillus subtilis. Description: Antibacterial activity against Bacillus subtilis after 24 hr by broth dilution method.
Assay [5] relates to Diutina rugosa. Description: Antifungal activity against Candida rugosa at 100 ug after 48 hr by agar cup bioassay. The conditions noted are these: read-out: DIZ.
Another assay has as its system Escherichia coli. Description: Antibacterial activity against Escherichia coli after 24 hr by broth dilution method.
The test system of assay [6] is Diutina rugosa. Description: Antifungal activity against Candida rugosa at 50 ug after 48 hr by agar cup bioassay. Conditions: read-out: DIZ.
The subject of assay [7] is Candida albicans. Description: Antifungal activity against Candida albicans at 50 ug after 48 hr by agar cup bioassay. Conditions: read-out: DIZ.

Broadly, the MIC is the smallest concentration in the dilution series that meets the test's criterion for growth inhibition. Low readings indicate inhibition by little substance, high ones a need for much substance. As for `NC(=O)N/N=C/c1c(-c2ccccc2)n(CC(=O)c2ccccc2)c2ccccc12`, the minimal inhibitory concentration (MIC) came out at 110 µg/mL (≈ 277 µM) in assay [1]; 130 µg/mL (≈ 328 µM) with Staphylococcus aureus; 100 µg/mL (≈ 252 µM) against Pseudomonas aeruginosa; 115 µg/mL (≈ 290 µM) against Klebsiella pneumoniae; 125 µg/mL (≈ 315 µM) against Bacillus subtilis; 100 µg/mL (≈ 252 µM) in the assay with Escherichia coli. In addition, the zone of inhibition at 150 µg/disc with Candida albicans [2] and in the assay on Diutina rugosa [4] was 8 mm throughout. The zone of inhibition at 100 µg/disc in the assay with Candida albicans [3] and with Diutina rugosa [5] was 0 mm in each case.

Consider `NC(=O)N/N=C/c1c(-c2ccccc2)n(CC(=O)c2ccc(Cl)cc2)c2ccccc12`, for which the MIC in [1] came to 140 µg/mL (≈ 325 µM); against Staphylococcus aureus, 130 µg/mL (≈ 302 µM); against Pseudomonas aeruginosa, 115 µg/mL (≈ 267 µM); in the assay with Klebsiella pneumoniae, 120 µg/mL (≈ 278 µM); in the assay with Bacillus subtilis, 110 µg/mL (≈ 255 µM); against Escherichia coli, 125 µg/mL (≈ 290 µM). Further, the zone of inhibition at 150 µg/disc in the assay on Candida albicans [2] was determined as 10 mm; in the assay with Diutina rugosa [4], 12 mm. For the same compound, the zone of inhibition at 100 µg/disc is 4 mm with Candida albicans [3] and 5 mm with Diutina rugosa [5].

Take `NC(=O)N/N=C/c1c(-c2ccccc2)n(CC(=O)c2ccc(Br)cc2)c2ccccc12`: the minimal inhibitory concentration (MIC) in assay [1] turned out to be 130 µg/mL (≈ 273 µM); in the assay on Staphylococcus aureus it was 125 µg/mL (≈ 263 µM); in the assay with Pseudomonas aeruginosa, 135 µg/mL (≈ 284 µM); in the assay with Klebsiella pneumoniae, 130 µg/mL (≈ 273 µM); with Bacillus subtilis, 105 µg/mL (≈ 221 µM); against Escherichia coli, 120 µg/mL (≈ 252 µM).

In the case of `Cc1ccc(C(=O)Cn2c(-c3ccccc3)c(/C=N/NC(N)=O)c3ccccc32)cc1`, the MIC is 125 µg/mL (≈ 305 µM) in [1]; 130 µg/mL (≈ 317 µM) in the assay on Staphylococcus aureus; > 150 µg/mL against Pseudomonas aeruginosa; > 150 µg/mL in the assay with Klebsiella pneumoniae; > 150 µg/mL against Bacillus subtilis; 130 µg/mL (≈ 317 µM) in the assay with Escherichia coli. The zone of inhibition at 150 µg/disc with Candida albicans [2] and in the assay with Diutina rugosa [4] was 10 mm throughout. The zone of inhibition at 100 µg/disc in the assay with Candida albicans [3] and in the assay on Diutina rugosa [5] was 7 mm in each case.

Turning to `COc1ccc(C(=O)Cn2c(-c3ccccc3)c(/C=N/NC(N)=O)c3ccccc32)cc1`, the minimal inhibitory concentration (MIC) in assay [1] turned out to be 130 µg/mL (≈ 305 µM); in the assay with Staphylococcus aureus, 110 µg/mL (≈ 258 µM); in the assay on Pseudomonas aeruginosa, 145 µg/mL (≈ 340 µM); in the assay on Klebsiella pneumoniae, 120 µg/mL (≈ 281 µM); in the assay on Bacillus subtilis it was 140 µg/mL (≈ 328 µM); against Escherichia coli it was 140 µg/mL (≈ 328 µM). For the same compound, the zone of inhibition at 150 µg/disc with Candida albicans [2] and in the assay on Diutina rugosa [4] was 10 mm in each case. Also, the zone of inhibition at 100 µg/disc in the assay with Candida albicans [3] and with Diutina rugosa [5] was 8 mm in each case.

As to `NC(=O)N/N=C/c1c(-c2ccccc2)n(CC(=O)c2ccc([N+](=O)[O-])cc2)c2ccccc12`, the MIC came to 110 µg/mL (≈ 249 µM) in assay [1]; 125 µg/mL (≈ 283 µM) with Staphylococcus aureus; 75 µg/mL (≈ 170 µM) against Pseudomonas aeruginosa; 37.5 µg/mL (≈ 84.9 µM) in the assay with Klebsiella pneumoniae; 120 µg/mL (≈ 272 µM) in the assay on Bacillus subtilis; 130 µg/mL (≈ 294 µM) against Escherichia coli. Also, the zone of inhibition at 150 µg/disc in the assay on Candida albicans [2] and in the assay on Diutina rugosa [4] was 14 mm in each case. Also, the results for the zone of inhibition at 100 µg/disc with Candida albicans [3] and in the assay on Diutina rugosa [5] were 9 mm and 10 mm, respectively.

For the compound `NC(=O)N/N=C/c1c(-c2ccccc2)n(CC(=O)c2ccc(-c3ccccc3)cc2)c2ccccc12`, the minimal inhibitory concentration (MIC) is 130 µg/mL (≈ 275 µM) in [1]; 110 µg/mL (≈ 233 µM) against Staphylococcus aureus; 105 µg/mL (≈ 222 µM) in the assay on Pseudomonas aeruginosa; 135 µg/mL (≈ 286 µM) against Klebsiella pneumoniae; > 150 µg/mL against Bacillus subtilis; 120 µg/mL (≈ 254 µM) in the assay with Escherichia coli.

`C=CCn1c(-c2ccccc2)c(/C=N/NC(N)=O)c2ccccc21`: the MIC in assay [1] is 115 µg/mL (≈ 361 µM); in the assay on Staphylococcus aureus it was 125 µg/mL (≈ 393 µM); in the assay with Pseudomonas aeruginosa it was 125 µg/mL (≈ 393 µM); against Klebsiella pneumoniae, > 150 µg/mL; in the assay on Bacillus subtilis, 140 µg/mL (≈ 440 µM); with Escherichia coli, 120 µg/mL (≈ 377 µM). The zone of inhibition at 150 µg/disc in the assay with Candida albicans [2] was found to be 15 mm; in the assay with Diutina rugosa [4], 12 mm. Moreover, the values for the zone of inhibition at 100 µg/disc in the assay with Candida albicans [3] and in the assay with Diutina rugosa [5] were 10 mm and 7 mm, respectively.

Take `CCCCn1c(-c2ccccc2)c(/C=N/NC(N)=O)c2ccccc21`: the MIC was 135 µg/mL (≈ 404 µM) in [1]; 125 µg/mL (≈ 374 µM) with Staphylococcus aureus; 120 µg/mL (≈ 359 µM) with Pseudomonas aeruginosa; 110 µg/mL (≈ 329 µM) against Klebsiella pneumoniae; > 150 µg/mL in the assay on Bacillus subtilis; 140 µg/mL (≈ 419 µM) against Escherichia coli. The zone of inhibition at 150 µg/disc in the assay on Candida albicans [2] turned out to be 12 mm; with Diutina rugosa [4], 10 mm. For the same compound, the zone of inhibition at 100 µg/disc in the assay on Candida albicans [3] and with Diutina rugosa [5] was 9 mm throughout.

Turning to `C#CCn1c(-c2ccccc2)c(/C=N/NC(N)=O)c2ccccc21`, the MIC in assay [1] was > 150 µg/mL; in the assay with Staphylococcus aureus, > 150 µg/mL; against Pseudomonas aeruginosa, > 150 µg/mL; against Klebsiella pneumoniae it was 110 µg/mL (≈ 348 µM); with Bacillus subtilis it was 125 µg/mL (≈ 395 µM); against Escherichia coli it was > 150 µg/mL. The zone of inhibition at 150 µg/disc is 13 mm in the assay with Candida albicans [2] and 15 mm in the assay on Diutina rugosa [4]. In addition, the figures for the zone of inhibition at 100 µg/disc with Candida albicans [3] and with Diutina rugosa [5] were 8 mm and 10 mm, respectively.

Consider `C[C@@H]1[C@H](O)[C@@H](C)/C=C/C=C/C=C/C=C/C=C/C=C/C=C/[C@H](O[C@@H]2O[C@H](C)[C@@H](O)[C@H](N)[C@@H]2O)C[C@@H]2O[C@](O)(C[C@@H](O)C[C@@H](O)[C@H](O)CC[C@@H](O)C[C@@H](O)CC(=O)O[C@H]1C)C[C@H](O)[C@H]2C(=O)O` [AMPHOTERICIN B], for which the zone of inhibition at 50 µg/disc with Diutina rugosa [6] was determined as 21 mm; in the assay on Candida albicans [7], 23.5 mm.

Turning to `O=C(O)c1cn(C2CC2)c2cc(N3CCNCC3)c(F)cc2c1=O` [CIPROFLOXACIN], the minimal inhibitory concentration (MIC) stood at 22 µg/mL (≈ 66.4 µM) in assay [1], 25 µg/mL (≈ 75.4 µM) with Klebsiella pneumoniae, 24 µg/mL (≈ 72.4 µM) in the assay with Bacillus subtilis and 20 µg/mL (≈ 60.4 µM) with Escherichia coli.
